Assays:
Assay type in all cases: in vivo
Septoria tritici = assay: Test C: wheat seedlings sprayed with test suspension, inoculated with Septoria tritici (wheat leaf blotch), visual disease rating
Description: (§1) General protocol for preparing test suspensions for Tests A-E: the test compounds were first dissolved in acetone in an amount equal to 3% of the final volume and then suspended at the desired concentration (in ppm) in acetone and purified water (50/50 mix by volume) containing 250 ppm of the surfactant Trem® 014 (polyhydric alcohol esters). The resulting test suspensions were then used in Tests A-E. Samples were applied to plants at either a 10 ppm (**), 40 ppm, 50 ppm (*) or 200 ppm (#) test solution to the point of run-off on the test plants with the equivalent of a rate of 40 g ai/ha, 160 g ai/ha, 200 g ai/ha, or 800 g ai/ha, respectively.
(§2) The test suspension was sprayed to the point of run-off on wheat seedlings. The following day the seedlings were inoculated with a spore suspension of Septoria tritici (the causal agent of wheat leaf blotch) and incubated in a saturated atmosphere at 24° C. for 48 h, and then moved to a growth chamber at 20° C. for 21 days, after which time visual disease ratings were made.
(§3) Results for Tests A-E are given in Table A. In the Table, a rating of 100 indicates 100% disease control and a rating of 0 indicates no disease control (relative to the controls). A dash (-) indicates no test results.

[1] = test system: Puccinia recondite f. sp. tritici; assay: Test D: wheat seedlings sprayed with test suspension, inoculated with Puccinia recondite f. sp. tritici (wheat leaf rust), visual disease rating
Description: as §1
as §2, with “Puccinia recondite f. sp. tritici;” for “Septoria tritici”, “rust)” for “blotch)”, “20°” for “24°”, “24” for “48”, “6” for “21”
as §3

[2] = test system: Erysiphe graminis f. sp. tritici; assay: Test E: wheat seedlings sprayed with test suspension, inoculated with Erysiphe graminis f. sp. tritici (wheat powdery mildew), visual disease rating
Description: as §1
The test suspension was sprayed to the point of run-off on wheat seedlings. The following day the seedlings were inoculated with a spore dust of Erysiphe graminis f. sp. tritici, (the causal agent of wheat powdery mildew) and incubated in a growth chamber at 20° C. for 7 or 8 days, after which time visual disease ratings were made.
as §3

[3] = test system: Stagonospora nodorum (also known as Septoria nodorum); assay: Test B: wheat seedlings sprayed with test suspension, inoculated with Stagonospora nodorum (wheat glume blotch), visual disease rating
Description: as §1
The test suspension was sprayed to the point of run-off on wheat seedlings. The following day the seedlings were inoculated with a spore suspension of Stagonospora nodorum (also known as Septoria nodorum; the causal agent of wheat glume blotch) and incubated in a saturated atmosphere at 20° C. for 48 h, and then moved to a growth chamber at 20° C. for 6 days, after which time visual disease ratings were made.
as §3

[4] = Cmpd. No. marked '**' (other test rate; meaning of mark not shown)
[5] = Cmpd. No. marked '*' (other test rate; meaning of mark not shown)
[6] = Cmpd. No. unmarked, 100 = 100% disease control, 0 = no control relative to controls

Row | Compound | Test C rating (% disease control) (Septoria tritici; [4]) [%] | Test D rating (% disease control) [1, 4] [%] | Test E rating (% disease control) [2, 4] [%] | Test C rating (% disease control) (Septoria tritici; [5]) [%] | Test D rating (% disease control) [1, 5] [%] | Test E rating (% disease control) [2, 5] [%] | also measured
1 | CC(c1ncc(-n2ccc(Br)n2)cc1Cl)N(C(=O)c1c(C(F)F)nn(C)c1F)C1CC1 (racemic) [compound 89] | 100 | 99 | 81 | – | – | – | –
2 | CC(c1ncc(-n2ccc(-c3ccccc3)n2)cc1Cl)N(C(=O)c1c(C(F)F)nn(C)c1F)C1CC1 (racemic) [compound 90] | 99 | 99 | 86 | – | – | – | –
3 | CC(c1ncc(-n2cc(Cl)cn2)cc1Cl)N(C(=O)c1c(C(F)F)nn(C)c1F)C1CC1 (racemic) [compound 97] | 97 | 94 | 94 | – | – | – | Test B rating (% disease control) [3, 4]: 100%
4 | CC(c1ncc(-n2cccn2)cc1Cl)N(C(=O)c1c(C(F)F)nn(C)c1F)C1CC1 (racemic) [compound 101] | 96 | 82 | 79 | – | – | – | –
5 | C=C(C)c1ccc(-n2ccc(C(F)(F)F)n2)cc1C(C)N(C(=O)c1c(C(F)F)nn(C)c1F)C1CC1 (racemic) [compound 123] | – | – | – | 100 | 92 | 93 | –
6 | Cn1nc(C(F)F)c(C(=O)N(Cc2ccc(-n3ccc(C(F)(F)F)n3)cc2Cl)C2CCC2)c1F [Compound 162] | 64 | 0 | 0 | – | – | – | Test B rating (% disease control) [3, 4]: 0%
7 | Cn1nc(C(F)F)c(C(=O)N(Cc2ccc(-n3ccc(C(F)(F)F)n3)cc2Cl)C2COC2)c1F [Compound 164] | 46 | 0 | 0 | – | – | – | Test B rating (% disease control) [3, 4]: 0%
8 | Cn1cc(C(=O)N(Cc2ncc(-n3ccc(C(F)(F)F)n3)cc2Br)C2CC2)c(C(F)F)n1 [compound 16] | – | – | – | 100 | 67 | 56 | –
9 | CC(c1cc(Cl)cc(-n2ccc(C(F)(F)F)n2)c1)N(C(=O)c1c(C(F)F)nn(C)c1F)C1CC1 (stereo not shown) [compound 54] | – | – | – | 96 | 99 | 93 | –
10 | Cc1ccc(C(C)N(C(=O)c2c(C(F)F)nn(C)c2F)C2CC2)cc1-n1ccc(C(F)(F)F)n1 (stereo not shown) [compound 73] | – | – | – | – | – | – | Test C rating (% disease control) (Septoria tritici; [6]): 99%; Test D rating (% disease control) [1, 6]: 85%; Test E rating (% disease control) [2, 6]: 90%
11 | CC(c1ccc(Cl)c(-n2ccc(C(F)(F)F)n2)c1)N(C(=O)c1c(C(F)F)nn(C)c1F)C1CC1 (stereo not shown) [compound 74] | – | – | – | – | – | – | Test C rating (% disease control) (Septoria tritici; [6]): 99%; Test D rating (% disease control) [1, 6]: 27%; Test E rating (% disease control) [2, 6]: 93%
12 | Cn1cc(C(=O)N(Cc2cc(-n3ccc(C(F)(F)F)n3)ncc2Cl)C2CC2)c(C(F)F)n1 [compound 75] | 24 | 45 | 0 | – | – | – | –
13 | CC(c1cccc(-n2ccc(C(F)(F)F)n2)c1Cl)N(C(=O)c1cn(C)nc1C(F)F)C1CC1 (stereo not shown) [compound 77] | 82 | 9 | 64 | – | – | – | –
14 | CC(c1ncc(-n2cc(Br)cn2)cc1Cl)N(C(=O)c1c(C(F)F)nn(C)c1F)C1CC1 (stereo not shown) [compound 78] | 100 | 94 | 92 | – | – | – | –
15 | CC(c1cccc(-n2ccc(C(F)(F)F)n2)c1Cl)N(C(=O)c1c(C(F)F)nn(C)c1F)C1CC1 (stereo not shown) [compound 79] | – | – | – | 99 | 74 | 98 | –
16 | Cc1cc(-n2ccc(C(F)(F)F)n2)cnc1CN(C(=O)c1c(C(F)F)nn(C)c1F)C1CC1 [compound 81] | 94 | 98 | 81 | – | – | – | –
17 | CC(C)c1ccc(-n2ccc(C(F)(F)F)n2)cc1C(C)N(C(=O)c1cn(C)nc1C(F)F)C1CC1 (stereo not shown) [compound 82] | – | – | – | 88 | 0 | 87 | –
18 | Cc1ccc(CN(C(=O)c2c(C(F)F)nn(C)c2F)C2CC2)cc1-n1ccc(C(F)(F)F)n1 [compound 87] | – | – | – | 98 | 80 | 92 | –

Row | Compound | Test C rating (% disease control) (Septoria tritici; [4]) [%] | Test D rating (% disease control) [1, 4] [%] | Test E rating (% disease control) [2, 4] [%] | Test C rating (% disease control) (Septoria tritici; [5]) [%] | Test D rating (% disease control) [1, 5] [%] | Test E rating (% disease control) [2, 5] [%] | also measured
19 | CC(C)c1ccc(-n2ccc(C(F)(F)F)n2)cc1CN(C(=O)c1c(C(F)F)nn(C)c1F)C1CC1 [compound 88] | – | – | – | 94 | 99 | 98 | –
20 | Cn1nc(C(F)F)c(C(=O)N(Cc2ncc(-n3ccc(C(F)(F)F)n3)cc2Br)C2CC2)c1F [compound 91] | 100 | 98 | 73 | – | – | – | –
21 | Cn1nc(C(F)F)c(C(=O)N(Cc2cc(-n3ccc(C(F)(F)F)n3)ncc2Cl)C2CC2)c1F [compound 92] | – | 67 | 0 | – | – | – | –
22 | Cc1cc(CN(C(=O)c2c(C(F)F)nn(C)c2F)C2CC2)ccc1-n1ccc(C(F)(F)F)n1 [compound 93] | 100 | 99 | 69 | – | – | – | –
23 | Cn1nc(C(F)F)c(C(=O)N(Cc2ccc(-n3ccc(C(F)(F)F)n3)c(C(F)(F)F)c2)C2CC2)c1F [compound 95] | 87 | 67 | 27 | – | – | – | –
24 | COc1cc(CN(C(=O)c2c(C(F)F)nn(C)c2F)C2CC2)ccc1-n1ccc(C(F)(F)F)n1 [compound 96] | 100 | 99 | 73 | – | – | – | –
25 | C=C(C)c1cc(CN(C(=O)c2c(C(F)F)nn(C)c2F)C2CC2)ccc1-n1ccc(C(F)(F)F)n1 [compound 102] | 100 | 98 | 13 | – | – | – | –
26 | CC(c1ncc(-n2ccc(C(F)(F)F)n2)cc1Cl)N(C(=O)c1c(C(F)F)nn(C)c1F)C1CC1 (stereo not shown) [compound 103] | 98 | 98 | 94 | – | – | – | –
27 | Cn1cc(-c2cnc(CN(C(=O)c3c(C(F)F)nn(C)c3F)C3CC3)c(Br)c2)cn1 [compound 110] | – | – | – | 90 | 94 | 40 | –
28 | Cn1cc(C(=O)N(Cc2cc(Cl)cc(-n3ccc(C(F)(F)F)n3)c2)C2CC2)c(C(F)F)n1 [compound 112] | – | – | – | 94 | 54 | 40 | –
29 | COc1ccc(-n2ccc(C(F)(F)F)n2)cc1CN(C(=O)c1c(C(F)F)nn(C)c1F)C1CC1 [compound 113] | – | – | – | 100 | 99 | 97 | –
30 | Cn1nc(C(F)F)c(C(=O)N(Cc2ncc(-n3ccc(C(F)(F)F)n3)cc2C2CC2)C2CC2)c1F [compound 114] | 100 | 100 | 92 | – | – | – | –
31 | CC(C)c1cc(CN(C(=O)c2c(C(F)F)nn(C)c2F)C2CC2)ccc1-n1ccc(C(F)(F)F)n1 [compound 116] | – | 98 | 69 | – | – | – | –
32 | COc1ccc(-n2ccc(C(F)(F)F)n2)cc1C(C)N(C(=O)c1cn(C)nc1C(F)F)C1CC1 (stereo not shown) [compound 120] | – | – | – | – | – | – | Test B rating (% disease control) [3, 6]: 100%; Test C rating (% disease control) (Septoria tritici; [6]): 92%; Test E rating (% disease control) [2, 6]: 95%
33 | Cn1nc(C(F)F)c(C(=O)N(Cc2ncc(-n3ccc(C(F)(F)F)n3)cc2Cl)C2CC2)c1F [compound 122] | 96 | 99 | 87 | – | – | – | –
34 | Cn1nc(C(F)F)c(C(=O)N(Cc2cccc(-n3ccc(C(F)(F)F)n3)c2Cl)C2CC2)c1F [compound 136] | – | – | – | 100 | 99 | 87 | –
35 | Cn1nc(C(F)F)c(C(=O)N(Cc2cccc(-n3ccc(C(F)(F)F)n3)c2C(F)(F)F)C2CC2)c1F [compound 137] | – | – | – | 94 | 98 | 87 | –

From patent US10098350B2, “Fungicidal amides” (E. I. DU PONT DE NEMOURS AND COMPANY, priority 2013, dated 2018)
